# Data as given in patent US12514938B2, “Fibroblast activation protein targeting peptides” (PERSPECTIVE THERAPEUTICS, INC., priority 2023, dated 2026).
# pKd, pKi: −log10 of the molar value. *1 amine or outer side, *2 acyl side, *3 side chain or, on linkers, in order; H or OH if unused. Where a SMILES comes first, the peptide text is derived from it. Bridges are numbered along the chain shown (N, C = ends). The star is where a group is joined. X1 = NC(=O)CN1CCN(CC(=O)O)CCN(CC(=O)*)CCN(CC(=O)O)CC1; oXylylene = c1ccc(C[*:2])c(C[*:1])c1; PEG2 = NCCOCCOCCC(=O)O
# How the values were obtained:
# human FAP [1] = target: T1, human FAP (Homo sapiens, UniProt Q12884); assay: Enzyme inhibition assay, binding specificity of VMT-FAP-2-59 (Example 3); type: biochemical; conditions: 50 μM Z-GP-AMC
# T1 sequence (Q12884 1-760): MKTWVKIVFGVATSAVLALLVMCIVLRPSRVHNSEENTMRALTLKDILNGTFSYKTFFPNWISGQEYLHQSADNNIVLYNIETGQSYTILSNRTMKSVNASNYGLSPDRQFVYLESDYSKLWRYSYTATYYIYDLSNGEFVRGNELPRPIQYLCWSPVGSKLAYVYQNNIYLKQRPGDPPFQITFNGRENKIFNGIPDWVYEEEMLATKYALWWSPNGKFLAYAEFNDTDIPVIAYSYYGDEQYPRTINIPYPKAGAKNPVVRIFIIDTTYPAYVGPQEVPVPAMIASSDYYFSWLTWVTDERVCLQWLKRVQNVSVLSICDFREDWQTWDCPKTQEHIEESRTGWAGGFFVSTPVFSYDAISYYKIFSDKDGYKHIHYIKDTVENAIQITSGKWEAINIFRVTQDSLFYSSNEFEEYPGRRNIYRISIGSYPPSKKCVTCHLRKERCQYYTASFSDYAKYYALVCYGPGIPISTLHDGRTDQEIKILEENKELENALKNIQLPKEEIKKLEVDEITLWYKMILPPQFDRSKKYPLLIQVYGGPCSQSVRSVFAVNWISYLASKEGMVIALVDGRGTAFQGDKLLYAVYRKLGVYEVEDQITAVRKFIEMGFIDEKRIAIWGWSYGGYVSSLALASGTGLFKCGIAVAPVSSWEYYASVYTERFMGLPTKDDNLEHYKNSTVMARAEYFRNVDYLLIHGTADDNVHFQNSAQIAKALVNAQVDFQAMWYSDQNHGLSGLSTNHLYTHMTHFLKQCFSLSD
# Procedure: (§1) The enzyme inhibition assay was performed to determine inhibitor constant (i.e., Ki) values against human FAP, mouse FAP, human dipeptidyl peptidase 4 (DPPIV) and human prolyl endopeptidase (PREP). Z-GP-AMC was used as substrate for human FAP, mouse FAP and human PREP. GP-AMC was used as substrate for human DPPIV. To perform the assay, VMT-FAP-2-59 at varying concentrations (i.e. 10^−6 to 10^−12) were incubated with 5 ng hFAP, 5 ng mFAP, 2.5 ng DPPIV, or 5 ng PREP in a black 96-well plate for 10 minutes at RT on a shaker plate. The substrate was added to give a final concentration of 50 μM for Z-GP-AMC and GP-AMC. The total reaction volume per well was 100 μL The reaction was allowed to incubate at RT on a shaker plate for 1 hour protected from light, and then fluorescence was read with a BioTek Synergy LX plate reader at an ex/em (360/40 and 460/40). Experiments were performed in at least duplicate. Buffer only, buffer/enzymes, buffer/substrate and enzyme only were included as controls. Data was plotted in GraphPad Prism and non-linear regression used to calculate IC50 values. Binding kinetics (Kd) of VMT-FAP-2-59 against human FAP, human DPPIV and human PREP were also determined by grating-coupled interferometry (GCI). hFAP, hDPPIV and hPREP proteins were fixed on PCH (N=3) chips or PCP (N=2). […] On PCP chips, binding affinity of VMT-FAP-2-29 to hFAP was determined from 39 pM to 20 nM. Binding affinity to hDPPIV and hPREP was determined at concentration from 39 pM to 50 nM.
# [2] = target: T2, human prolyl endopeptidase (PREP) (Homo sapiens, UniProt P48147); assay: as above; type: biochemical; conditions: 50 μM Z-GP-AMC
# T2 sequence (P48147 1-710): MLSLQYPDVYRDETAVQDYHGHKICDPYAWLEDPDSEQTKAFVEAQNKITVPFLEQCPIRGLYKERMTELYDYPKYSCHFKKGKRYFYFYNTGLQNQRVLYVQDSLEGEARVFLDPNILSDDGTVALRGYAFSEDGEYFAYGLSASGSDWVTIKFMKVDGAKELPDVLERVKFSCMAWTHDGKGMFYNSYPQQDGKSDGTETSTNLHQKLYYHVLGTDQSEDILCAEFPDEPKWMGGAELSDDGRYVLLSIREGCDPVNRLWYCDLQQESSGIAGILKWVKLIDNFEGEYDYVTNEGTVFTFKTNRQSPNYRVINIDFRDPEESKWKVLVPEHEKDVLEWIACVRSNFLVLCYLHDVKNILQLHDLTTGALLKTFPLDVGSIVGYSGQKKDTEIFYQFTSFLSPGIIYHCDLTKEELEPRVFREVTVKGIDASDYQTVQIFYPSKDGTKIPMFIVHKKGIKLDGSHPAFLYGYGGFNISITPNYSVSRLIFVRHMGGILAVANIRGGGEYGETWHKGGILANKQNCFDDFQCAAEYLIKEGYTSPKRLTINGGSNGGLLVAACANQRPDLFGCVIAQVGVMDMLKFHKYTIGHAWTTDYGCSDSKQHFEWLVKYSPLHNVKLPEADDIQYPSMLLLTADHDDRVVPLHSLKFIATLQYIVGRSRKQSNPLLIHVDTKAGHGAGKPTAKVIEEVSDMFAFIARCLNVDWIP
# Procedure: as §1
# human FAP [3] = target: T1, human FAP; assay: Grating-coupled interferometry (GCI) binding kinetics; conditions: GCI on PCH/PCP chips
# Procedure: as §1
# human DPPIV = human DPPIV (Homo sapiens, UniProt P27487); assay: as above
# Procedure: as §1
# human PREP = target: T3, human PREP (Homo sapiens, UniProt P48147); assay: as above
# T3 sequence (P48147 1-710): T2 sequence (P48147 1-710)
# Procedure: as §1
# [4] = target: human dipeptidyl peptidase 4 (DPPIV) (Homo sapiens, UniProt P27487); assay: Enzyme inhibition assay, binding specificity of VMT-FAP-2-59 (Example 3, substrate GP-AMC); type: biochemical; conditions: 50 μM GP-AMC
# Procedure: as §1, with “Binding affinity to hDPPIV and hPREP was determined at concentration from 39 pM to 50 nM.” left out
# Sequence of human DPPIV (P27487 whole entry): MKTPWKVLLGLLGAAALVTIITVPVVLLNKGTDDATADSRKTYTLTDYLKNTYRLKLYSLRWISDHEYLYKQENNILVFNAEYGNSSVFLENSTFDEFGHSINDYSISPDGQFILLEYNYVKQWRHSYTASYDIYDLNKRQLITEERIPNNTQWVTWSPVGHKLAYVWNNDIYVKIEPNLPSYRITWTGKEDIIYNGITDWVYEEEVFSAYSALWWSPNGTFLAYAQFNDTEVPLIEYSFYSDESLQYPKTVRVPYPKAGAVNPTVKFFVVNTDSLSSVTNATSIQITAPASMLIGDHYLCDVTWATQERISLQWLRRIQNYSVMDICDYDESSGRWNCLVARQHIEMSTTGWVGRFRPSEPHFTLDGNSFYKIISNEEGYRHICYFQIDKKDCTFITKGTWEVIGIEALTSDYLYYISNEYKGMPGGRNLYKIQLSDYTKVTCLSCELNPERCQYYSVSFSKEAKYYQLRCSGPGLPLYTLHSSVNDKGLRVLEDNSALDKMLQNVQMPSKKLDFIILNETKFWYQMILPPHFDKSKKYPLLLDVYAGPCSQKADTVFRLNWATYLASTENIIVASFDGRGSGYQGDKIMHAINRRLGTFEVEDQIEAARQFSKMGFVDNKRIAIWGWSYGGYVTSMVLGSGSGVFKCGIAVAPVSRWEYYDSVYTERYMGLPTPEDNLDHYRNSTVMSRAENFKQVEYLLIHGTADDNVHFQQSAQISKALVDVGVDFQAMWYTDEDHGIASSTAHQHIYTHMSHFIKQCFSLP
# Sequence of human dipeptidyl peptidase 4 (DPPIV) (P27487 whole entry): as above
smiles,measurement,setting,value
"C[C@@H](O)[C@@H]1NC(=O)[C@@H](NC(=O)CCOCCOCCNC(=O)CN2CCN(CC(=O)O)CCN(CC(N)=O)CCN(CC(=O)O)CC2)CSCc2ccccc2CSC[C@@H](C(N)=O)NC(=O)[C@H](Cc2c[nH]c3ccccc23)NC(=O)[C@H](Cc2c[nH]c3ccccc23)NC(=O)[C@H](CCC(N)=O)NC(=O)[C@H](CCC(=O)O)NC(=O)[C@H](Cc2c[nH]c3ccccc23)NC(=O)[C@@H]2CCCN2C1=O [VMT-FAP-2-59, PSC-PEG2-[C(oXdB)TPWEQWWC]-NH2] ({X1-PEG2}-CTPWEQWWC-NH2; linker 1-9 via oXylylene)",pKi,human FAP [1],9.40
same,pKi,[2],6.82
same,pKd,human FAP [3],8.70
same,Kd,human DPPIV,No binding
same,Kd,human PREP,No binding
same,Ki,[4],No binding
